In brackets after ≈: the same amount, converted by molar mass.
Key:
Peptide deformylase [1] = target: T1, Peptide deformylase (Staphylococcus aureus, UniProt P68826); experiment: Inhibition of Staphylococcus aureus PDF by absorbance detection assay
T1 sequence (P68826 whole entry): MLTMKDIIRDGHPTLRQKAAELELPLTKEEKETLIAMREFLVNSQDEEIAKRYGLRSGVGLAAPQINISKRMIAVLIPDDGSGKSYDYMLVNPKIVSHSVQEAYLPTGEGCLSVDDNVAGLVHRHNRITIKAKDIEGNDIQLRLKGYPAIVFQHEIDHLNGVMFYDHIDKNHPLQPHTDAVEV

[2] = Inhibition of Haemophilus influenzae PDF by absorbance detection assay
[3] = Inhibition of Streptococcus pneumoniae PDF by absorbance detection assay
Staphylococcus aureus [4] = experiment: Antimicrobial activity against Staphylococcus aureus Oxford; type: functional
Haemophilus influenzae [5] = experiment: Antimicrobial activity against Haemophilus influenzae Q1; type: functional
Streptococcus pneumoniae [6] = experiment: Antimicrobial activity against Streptococcus pneumoniae 1629; type: functional
[7] = Chromatographic hydrophobicity index, log D of compound at pH 7.4; type: physicochemical; conditions: buffer
[8] = Solubility of compound by chemiluminescent nitrogen detection assay; type: physicochemical
Staphylococcus aureus [9] = experiment: Antimicrobial activity against Staphylococcus aureus; type: functional
Haemophilus influenzae [10] = experiment: Antimicrobial activity against Haemophilus influenzae; type: functional
Streptococcus pneumoniae [11] = experiment: Antimicrobial activity against Streptococcus pneumoniae; type: functional
[12] = Half life in rat at 3 mg/kg, iv; type: ADME, organism-based; conditions: in vivo
[13] = Clearance in rat at 3 mg/kg, iv; type: ADME, organism-based; conditions: in vivo
[14] = Volume of distribution at steady state in rat at 3 mg/kg, iv; type: ADME, organism-based; conditions: in vivo, read-out: Vdss
[15] = AUC in rat at 3 mg/kg, iv; type: ADME, organism-based; conditions: in vivo
[16] = Half life in rat at 5 mg/kg, po; type: ADME, organism-based; conditions: in vivo
[17] = Cmax in rat at 5 mg/kg, po; type: ADME, organism-based; set-up: dose 5 mg/kg, route oral; conditions: in vivo
[18] = AUC in rat at 5 mg/kg, po; type: ADME, organism-based; conditions: in vivo
[19] = Oral bioavailability in rat at 5 mg/kg; type: ADME, organism-based; conditions: in vivo
Streptococcus pneumoniae [20] = experiment: Antimicrobial activity against Streptococcus pneumoniae Ery-2; type: functional
Streptococcus pneumoniae [21] = experiment: Antimicrobial activity against Streptococcus pneumoniae Ery-2 infected in respiratory tract infection rat model assessed as log reduction in bacterial CFU at 150 mg/kg, po BID dosed 1 hr post infection and measured for 96 hrs; type: functional
Streptococcus pneumoniae [22] = experiment: Antimicrobial activity against Streptococcus pneumoniae Ery-2 infected in respiratory tract infection rat model assessed as log reduction in bacterial CFU at 300 mg/kg, po BID dosed 1 hr post infection and measured for 96 hrs; type: functional
Peptide deformylase [23] = target: T1, Peptide deformylase; experiment: Inhibition of Staphylococcus aureus PDF by fluorescence detection assay
[24] = Inhibition of Haemophilus influenzae PDF by fluorescence detection assay
[25] = Inhibition of Streptococcus pneumoniae PDF by fluorescence detection assay
Streptococcus pneumoniae [26] = experiment: Antimicrobial activity against Streptococcus pneumoniae Ery-2 in presence of clavulanic acid; type: functional
Streptococcus pneumoniae [27] = experiment: Antimicrobial activity against Streptococcus pneumoniae Ery-2 infected in respiratory tract infection rat model assessed as log reduction in bacterial CFU at 350 mg/kg, po BID dosed 1 hr post infection and measured for 96 hrs in presence of 50 mg/kg clavulanic acid; type: functional

Row | Structure (SMILES) | IC50 (Peptide deformylase [1]) | IC50 [2] | IC50 [3] | MIC (Staphylococcus aureus [4]) | MIC (Haemophilus influenzae [5]) | MIC (Streptococcus pneumoniae [6]) | CHI [7] | solubility kinetic [8] | IC50 (Peptide deformylase [23]) | IC50 [24] | IC50 [25] | also measured
1 | CCc1nnc(NC(=O)[C@@H]2CCCNN2C(=O)[C@H](CC2CCCC2)CN(O)C=O)s1 | 1 nM | 2 nM | 0.4 nM | 1 µg/mL (≈ 2.28 µM) | 1 µg/mL (≈ 2.28 µM) | 1 µg/mL (≈ 2.28 µM) | 3.38 | 530 µM (≈ 232 µg/mL) |  |  |  | MIC90 (Staphylococcus aureus [9]): 2 µg/mL (≈ 4.56 µM); MIC90 (Haemophilus influenzae [10]): 2 µg/mL (≈ 4.56 µM); MIC90 (Streptococcus pneumoniae [11]): 1 µg/mL (≈ 2.28 µM); half-life [12]: 402 min; clearance [13]: 20 mL/min/kg; Vd [14]: 4 L/kg; AUC [15]: 2140 ng·h/mL; half-life [16]: 282 min; Cmax [17]: 711 ng/mL; AUC [18]: 1580 ng·h/mL; bioavailability [19]: 36%; MIC (Streptococcus pneumoniae [20]): 0.5 µg/mL (≈ 1.14 µM); Activity (Streptococcus pneumoniae [21]): 0.8 log10CFU/ml; Activity (Streptococcus pneumoniae [22]): 1.7 log10CFU/ml
2 | CN(C)c1cc(NC(=O)[C@@H]2CCCNN2C(=O)[C@H](CC2CCCC2)CN(O)C=O)ncn1 |  |  |  | 0.5 µg/mL (≈ 1.12 µM) | 2 µg/mL (≈ 4.47 µM) | 0.5 µg/mL (≈ 1.12 µM) | 3.38 | > 649 µM | 1 nM | 13 nM | 0.3 nM | 
3 | O=CN(O)C[C@@H](CC1CCCC1)C(=O)N1NCCC[C@H]1C(=O)Nc1ccccn1 | 2 nM | 3 nM | 1 nM | 0.5 µg/mL (≈ 1.24 µM) | 0.5 µg/mL (≈ 1.24 µM) | 1 µg/mL (≈ 2.48 µM) | 3.71 | > 463 µM |  |  |  | 
4 | CN(C)c1cccc(NC(=O)[C@@H]2CCCNN2C(=O)[C@H](CC2CCCC2)CN(O)C=O)n1 |  |  |  | 4 µg/mL (≈ 8.96 µM) | 4 µg/mL (≈ 8.96 µM) | 0.5 µg/mL (≈ 1.12 µM) | 4.88 | > 364 µM | 20 nM | 32 nM | 8 nM | 
5 | O=CN(O)C[C@@H](CC1CCCC1)C(=O)N1NCCC[C@H]1C(=O)Nc1ccccc1 | 5 nM | 2 nM | 1 nM | 4 µg/mL (≈ 9.94 µM) | 1 µg/mL (≈ 2.48 µM) | 2 µg/mL (≈ 4.97 µM) | 4.82 | > 534 µM |  |  |  | 
6 | O=CN(O)C[C@@H](CC1CCCC1)C(=O)N1NCCC[C@H]1C(=O)Nc1cnccn1 | 1 nM | 3 nM | 0.3 nM | 2 µg/mL (≈ 4.94 µM) | 0.25 µg/mL (≈ 0.618 µM) | 8 µg/mL (≈ 19.8 µM) | 2.87 | > 586 µM |  |  |  | 
7 | Cc1ccnc(NC(=O)[C@@H]2CCCNN2C(=O)[C@H](CC2CCCC2)CN(O)C=O)c1 |  |  |  | 1 µg/mL (≈ 2.4 µM) | 2 µg/mL (≈ 4.79 µM) | 2 µg/mL (≈ 4.79 µM) | 4.05 | > 565 µM | 2 nM | 40 nM | 0.4 nM | MIC90 (Staphylococcus aureus [9]): 1 µg/mL (≈ 2.4 µM); MIC90 (Haemophilus influenzae [10]): 4 µg/mL (≈ 9.58 µM); MIC90 (Streptococcus pneumoniae [11]): 1 µg/mL (≈ 2.4 µM)
8 | O=CN(O)C[C@@H](CC1CCCC1)C(=O)N1NCCC[C@H]1C(=O)Nc1cccnn1 | 2 nM | 4 nM | 0.6 nM | 1 µg/mL (≈ 2.47 µM) | 0.5 µg/mL (≈ 1.24 µM) | 4 µg/mL (≈ 9.89 µM) | 2.69 | 303 µM (≈ 123 µg/mL) |  |  |  | 
9 | CN(C)c1cncc(NC(=O)[C@@H]2CCCNN2C(=O)[C@H](CC2CCCC2)CN(O)C=O)n1 |  |  |  | 1 µg/mL (≈ 2.23 µM) | 1 µg/mL (≈ 2.23 µM) | 1 µg/mL (≈ 2.23 µM) | 3.65 | > 515 µM | 5 nM | 16 nM | 0.79 nM | half-life [12]: 420 min; clearance [13]: 73 mL/min/kg; Vd [14]: 13 L/kg; AUC [15]: 685 ng·h/mL; half-life [16]: 600 min; Cmax [17]: 53 ng/mL; AUC [18]: 169 ng·h/mL; bioavailability [19]: 15%
10 | CC1(C)S[C@@H]2[C@H](NC(=O)[C@H](N)c3ccc(O)cc3)C(=O)N2[C@H]1C(=O)O [AMOXICILLIN] |  |  |  |  |  |  |  |  |  |  |  | MIC (Streptococcus pneumoniae [26]): 0.03 µg/mL; Activity (Streptococcus pneumoniae [27]): 5.2 log10CFU/ml
11 | CN(C(=O)[C@@H]1CCCNN1C(=O)[C@H](CC1CCCC1)CN(O)C=O)c1ccccn1 | 18 nM | 15 nM | 8 nM | 4 µg/mL (≈ 9.58 µM) | 4 µg/mL (≈ 9.58 µM) | 2 µg/mL (≈ 4.79 µM) | 3.3 | > 657 µM |  |  |  | 

— ChEMBL document CHEMBL4433235, “Discovery of piperazic acid peptide deformylase inhibitors with in vivo activity for respiratory tract and skin infections” (Bioorg Med Chem Lett, 2019)
